Read-outs that look alike come from different tables or passages of the source.
Columns and labels:
Recombinant EGFR = molecular target: T1, Recombinant EGFR (Homo sapiens, UniProt P00533); assay: EGFR binding affinity (LanthaScreen TR-FRET); conditions: Kinase Tracer 199, 5 h incubation
T1 construct: purchased Invitrogen
Experimental: EGFR binding affinity was determined using a time-resolved fluorescence resonance energy transfer (TR-FRET) methodology. […] Recombinant EGFR and all LanthaScreen™ components were purchased from Invitrogen. Measurements were performed in a reaction volume of 30 μL using half-area 96-well assay plates. […] Binding affinity was determined for each compound by measuring TR-FRET signal at various concentrations of compound and plotting the relative fluorescence units against the inhibitor concentration to estimate the IC50 from log[Inhibitor] vs response using the Variable Slope model in Graphpad prism from Graphpad software (San Diego, Calif.).

[1] = molecular target: T2, Recombinant BTK^WT kinase (Homo sapiens, UniProt Q06187); assay: BTK WT binding affinity (LanthaScreen TR-FRET); conditions: Kinase Tracer 236, 5 h incubation
T2 construct: purchased Invitrogen
Experimental: BTK^WT binding affinity of each compound tested was determined using a time-resolved fluorescence resonance energy transfer (TR-FRET) methodology. 2.5 nM Recombinant BTK^WT kinase, varying concentrations of inhibitor, 2 nM LanthaScreen™ Eu anti-His Antibody and 15 nM Kinase Tracer 236 was incubated in 1× LanthaScreen™ Kinase Buffer A for 5 h. Recombinant BTK kinase and all LanthaScreen™ components were purchased from Invitrogen. Measurements were performed in a reaction volume of 30 μL using half-area 96-well assay plates. The TR-FRET signal was read on a plate reader with an excitation wavelength of 340 nm and detection wavelengths of 615 and 665 nm. Binding affinity was determined for each compound by measuring TR-FRET signal at various concentrations of compound and plotting the relative fluorescence units against the inhibitor concentration to estimate the IC50 from log[Inhibitor] vs response using the Variable Slope model in Graphpad prism from Graphpad software (San Diego, Calif.).

[2] = tested on: OCI-Ly10 human DLBCL cells; assay: OCI-Ly10 anti-proliferative activity (Resazurin); format: cell-based; conditions: OCI-Ly10 cells, 72 h compound treatment, Resazurin, read-out: Proliferation Assay OCI-Ly10-20% FBS
Experimental: Compounds were assayed for effects on the growth of OCI-Ly10 human DLBCL cells that are dependent on NFκB signalling. […] Cells were then plated at 7.5×10^3 cells per well in 96-well plates in varying concentrations of compound and incubated for 72 h at 37° C. An additional plate of cells to be used as the Day 0 read was seeded without compound addition, Resazurin was added to each well, incubated for 5 h and the fluorescence measured at 590 nm. After 72 h of compound treatment, Resazurin was added to each well of the compound treated plates, incubated for 5 h and the fluorescence measured at 590 nm. The IC50 was then calculated by subtracting the average Day 0 value from each well value from the treated plates, each treatment was then calculated as a percentage of the DMSO control and the percentages plotted against the inhibitor concentration to estimate the IC50 from log[Inhibitor] vs response using the Variable Slope model in Graphpad prism from Graphpad software (San Diego, Calif.).

[3] = molecular target: T3, Recombinant BTK^C481S kinase (Homo sapiens, UniProt Q06187, C481S); assay: BTK C481S binding affinity (LanthaScreen TR-FRET); conditions: Kinase Tracer 236, 5 h incubation
T3 construct: purchased SignalChem
Experimental: BTK^C481S binding affinity of each compound tested was determined using a time-resolved fluorescence resonance energy transfer (TR-FRET) methodology. 5 nM Recombinant BTK^WT kinase, varying concentrations of inhibitor, 2 nM LanthaScreen™ Eu anti-His Antibody and 30 nM Kinase Tracer 236 was incubated in 1× LanthaScreen™ Kinase Buffer A for 5 h. Recombinant BTK^C481S kinase was purchased from SignalChem and all LanthaScreen™ components were purchased from Invitrogen. Measurements were performed in a reaction volume of 30 μL using half-area 96-well assay plates. The TR-FRET signal was read on a plate reader with an excitation wavelength of 340 nm and detection wavelengths of 615 and 665 nm. Binding affinity was determined for each compound by measuring TR-FRET signal at various concentrations of compound and plotting the relative fluorescence units against the inhibitor concentration to estimate the IC50 from log[Inhibitor] vs response using the Variable Slope model in Graphpad prism from Graphpad software (San Diego, Calif.).

T1 sequence (P00533 25-1210): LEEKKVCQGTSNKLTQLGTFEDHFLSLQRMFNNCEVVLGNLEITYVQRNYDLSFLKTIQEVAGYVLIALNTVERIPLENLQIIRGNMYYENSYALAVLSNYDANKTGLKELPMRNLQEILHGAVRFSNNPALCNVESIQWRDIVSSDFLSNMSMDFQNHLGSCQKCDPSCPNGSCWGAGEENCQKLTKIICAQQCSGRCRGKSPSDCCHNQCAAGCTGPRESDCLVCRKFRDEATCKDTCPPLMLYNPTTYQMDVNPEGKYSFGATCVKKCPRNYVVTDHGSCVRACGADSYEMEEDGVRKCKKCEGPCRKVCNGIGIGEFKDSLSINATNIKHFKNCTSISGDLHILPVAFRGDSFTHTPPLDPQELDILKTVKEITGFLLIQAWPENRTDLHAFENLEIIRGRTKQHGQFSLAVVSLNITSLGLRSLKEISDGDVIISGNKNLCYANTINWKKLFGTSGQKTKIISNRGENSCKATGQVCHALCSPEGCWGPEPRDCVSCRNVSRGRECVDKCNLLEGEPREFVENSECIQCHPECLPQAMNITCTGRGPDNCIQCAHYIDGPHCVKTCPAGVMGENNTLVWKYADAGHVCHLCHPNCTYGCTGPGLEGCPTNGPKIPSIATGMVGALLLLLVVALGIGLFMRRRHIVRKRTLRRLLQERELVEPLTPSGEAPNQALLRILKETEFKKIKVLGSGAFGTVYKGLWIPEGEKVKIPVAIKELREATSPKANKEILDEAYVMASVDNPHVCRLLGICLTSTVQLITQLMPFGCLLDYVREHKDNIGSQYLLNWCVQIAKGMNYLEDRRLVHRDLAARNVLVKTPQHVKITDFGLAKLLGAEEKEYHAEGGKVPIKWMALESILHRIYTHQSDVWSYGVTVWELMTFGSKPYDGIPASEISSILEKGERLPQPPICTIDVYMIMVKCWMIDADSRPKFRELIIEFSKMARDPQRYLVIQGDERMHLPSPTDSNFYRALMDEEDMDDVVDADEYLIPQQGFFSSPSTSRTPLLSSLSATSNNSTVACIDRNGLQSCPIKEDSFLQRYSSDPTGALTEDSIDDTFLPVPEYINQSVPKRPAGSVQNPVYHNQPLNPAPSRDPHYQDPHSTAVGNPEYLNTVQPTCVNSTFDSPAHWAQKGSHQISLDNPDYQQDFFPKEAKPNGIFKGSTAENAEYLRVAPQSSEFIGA
T2 sequence (Q06187 whole entry): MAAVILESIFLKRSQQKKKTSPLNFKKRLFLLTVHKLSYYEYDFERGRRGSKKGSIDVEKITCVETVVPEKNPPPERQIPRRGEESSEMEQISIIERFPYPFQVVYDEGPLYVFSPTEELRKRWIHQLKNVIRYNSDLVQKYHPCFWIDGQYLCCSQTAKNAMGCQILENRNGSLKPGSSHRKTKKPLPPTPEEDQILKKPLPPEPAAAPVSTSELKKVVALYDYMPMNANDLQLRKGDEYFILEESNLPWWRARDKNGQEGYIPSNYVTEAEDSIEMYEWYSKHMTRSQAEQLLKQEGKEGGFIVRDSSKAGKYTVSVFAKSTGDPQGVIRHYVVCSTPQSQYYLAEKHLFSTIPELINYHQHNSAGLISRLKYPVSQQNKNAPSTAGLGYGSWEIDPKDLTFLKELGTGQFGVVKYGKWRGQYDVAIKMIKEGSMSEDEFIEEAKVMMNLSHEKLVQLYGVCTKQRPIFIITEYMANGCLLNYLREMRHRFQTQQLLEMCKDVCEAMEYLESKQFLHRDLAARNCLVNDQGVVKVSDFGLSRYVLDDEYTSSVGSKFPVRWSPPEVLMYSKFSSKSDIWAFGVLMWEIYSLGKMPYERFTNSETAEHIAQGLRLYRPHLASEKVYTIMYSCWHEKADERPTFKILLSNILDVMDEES
T3 sequence (Q06187 whole entry C481S): as the sequence (Q06187 whole entry) above, with C481S counted along it

Row | SMILES | IC50 (Recombinant EGFR) | IC50 [1] | IC50 ([2]; Homo sapiens, OCI-Ly10, 72 h) | IC50 [3] | IC50 [2]
1 | COc1ccccc1C(=O)NCc1ccc(-c2nn(-c3ccccc3F)c(N)c2C(N)=O)cc1 [Example 39, 5-amino-1-(2-fluorophenyl)-3-[4-[[(2-methoxybenzoyl)amino]methyl]phenyl]pyrazole-4-carboxamide] | 100 to 1000 nM | < 10 nM | 10 to 100 nM | < 10 nM | 
2 | COc1ccc(F)cc1C(=O)NCc1ccc(-c2nn(C3CCOC3)c(N)c2C(N)=O)cc1 (stereo not drawn) [Example 114, 5-amino-3-[4-[[(5-fluoro-2-methoxy-benzoyl)amino]methyl]phenyl]-1-tetrahydrofuran-3-yl-pyrazole-4-carboxamide] | 1000 to 10000 nM | < 10 nM | 10 to 100 nM | < 10 nM | 
3 | COc1ccccc1C(=O)NCc1ccc(-c2nn(C3CCCC3)c(Cl)c2C(N)=O)cc1 [Example 78, 5-chloro-1-cyclopentyl-3-[4-[[(2-methoxybenzoyl)amino]methyl]phenyl]pyrazole-4-carboxamide] | > 10000 nM | 10 to 100 nM | 1000 to 10000 nM | 10 to 100 nM | 
4 | COc1ccccc1C(=O)NCc1ccc(-c2nn(C3CCOC(C)C3)c(N)c2C(N)=O)cc1 (mixture of isomers) [Example 85, 5-amino-3-[4-[[(2-methoxybenzoyl)amino]methyl]phenyl]-1-(2-methyltetrahydropyran-4-yl)pyrazole-4-carboxamide] | 100 to 1000 nM | < 10 nM | 10 to 100 nM | < 10 nM | 
5 | COc1ccccc1C(=O)NCc1ccc(-c2nn(CCN3CCOCC3)c(N)c2C(N)=O)cc1 [Example 9, 5-Amino-3-[4-[[(2-methoxybenzoyl)amino]methyl]phenyl]-1-(2-morpholinoethyl)pyrazole-4-carboxamide] | 1000 to 10000 nM | 10 to 100 nM | 100 to 1000 nM | 10 to 100 nM | 
6 | COc1ccccc1C(=O)NCc1ccc(-c2nn(C3CC(C)OC(C)C3)c(N)c2C(N)=O)cc1 (stereo not drawn) [Example 104, 5-amino-1-(2,6-dimethyltetrahydropyran-4-yl)-3-[4-[[(2-methoxybenzoyl)amino]methyl]phenyl]pyrazole-4-carboxamide] | 1000 to 10000 nM | 10 to 100 nM | 100 to 1000 nM | < 10 nM | 
7 | COc1ccccc1C(=O)NCc1ccc(-c2nn(C3CCC3)c(N)c2C(N)=O)cc1 [Example 35, 5-Amino-1-cyclobutyl-3-[4-[[(2-methoxybenzoyl)amino]methyl]phenyl]pyrazole-4-carboxamide] | 1000 to 10000 nM | < 10 nM | 10 to 100 nM | < 10 nM | 
8 | COc1ccccc1C(=O)NCc1ccc(-c2nn(C3CNCC3(F)F)c(N)c2C(N)=O)cc1F (stereo not drawn) [Example 160, 5-amino-1-(4,4-difluoropyrrolidin-3-yl)-3-[3-fluoro-4-[[(2-methoxybenzoyl)amino]methyl]phenyl]pyrazole-4-carboxamide] | 1000 to 10000 nM | 10 to 100 nM | 100 to 1000 nM | < 10 nM | 
9 | COc1ccccc1C(=O)NCc1ccc(-c2nn(C3CCCOC3)c(N)c2C(N)=O)c(F)c1F (stereo not drawn) [Example 157, 5-amino-3-[2,3-difluoro-4-[[(2-methoxybenzoyl)amino]methyl]phenyl]-1-tetrahydropyran-3-yl-pyrazole-4-carboxamide] | > 10000 nM | < 10 nM | 10 to 100 nM | < 10 nM | 
10 | CNc1c(C(N)=O)c(-c2ccc(CNC(=O)c3ccccc3OC)cc2)nn1C1CCOC1 (stereo not drawn) [Example 97, 3-[4-[[(2-methoxybenzoyl)amino]methyl]phenyl]-5-(methylamino)-1-tetrahydrofuran-3-yl-pyrazole-4-carboxamide] | 1000 to 10000 nM | 10 to 100 nM | 1000 to 10000 nM | < 10 nM | 
11 | CNc1c(C(N)=O)c(-c2ccc(CNC(=O)c3ccccc3OC)cc2)nn1C1CCOCC1 [Example 91, 3-[4-[[(2-methoxybenzoyl)amino]methyl]phenyl]-5-(methylamino)-1-tetrahydropyran-4-yl-pyrazole-4-carboxamide] | 1000 to 10000 nM | 10 to 100 nM | 100 to 1000 nM | < 10 nM | 
12 | COc1ccc(F)cc1C(=O)NCc1c(F)cc(-c2nn(C3CCOCC3)c(N)c2C(N)=O)cc1F [Example 133, 5-amino-3-[3,5-difluoro-4-[[(5-fluoro-2-methoxy-benzoyl)amino]methyl]phenyl]-1-tetrahydropyran-4-yl-pyrazole-4-carboxamide] | > 10000 nM | 100 to 1000 nM |  | 10 to 100 nM | 
13 | COc1ccccc1C(=O)NCc1c(F)cc(-c2nn(C3CCOCC3)c(N)c2C(N)=O)cc1F [Example 132, 5-amino-3-[3,5-difluoro-4-[[(2-methoxybenzoyl)amino]methyl]phenyl]-1-tetrahydropyran-4-yl-pyrazole-4-carboxamide] | > 10000 nM | 100 to 1000 nM |  | 10 to 100 nM | 
14 | COc1ccc(F)cc1C(=O)NCc1ccc(-c2nn(C(C3CC3)C(F)(F)F)c(N)c2C(N)=O)cc1 (stereo not drawn) [Example 188, 5-amino-1-(1-cyclopropyl-2,2,2-trifluoro-ethyl)-3-[4-[[(5-fluoro-2-methoxy-benzoyl)amino]methyl]phenyl]pyrazole-4-carboxamide] | 1000 to 10000 nM | < 10 nM |  | < 10 nM | 
15 | COc1ccccc1C(=O)NCc1ccc(-c2nn(C3CCC(C)(O)CC3)c(N)c2C(N)=O)cc1 (single isomer, unassigned) [Example 27, 5-Amino-1-(4-hydroxy-4-methyl-cyclohexyl)-3-[4-[[(2-methoxybenzoyl)amino]methyl]phenyl]pyrazole-4-carboxamide] | 100 to 1000 nM | < 10 nM |  |  | 10 to 100 nM
16 | COc1ccccc1C(=O)NCc1ccc(-c2nn(C3CCCC3)c(Nc3ccccc3)c2C(N)=O)cc1 [Example 56, 5-anilino-1-cyclopentyl-3-[4-[[(2-methoxybenzoyl)amino]methyl]phenyl]pyrazole-4-carboxamide] |  | 100 to 1000 nM | 1000 to 10000 nM | 100 to 1000 nM | 
17 | COc1ccccc1C(=O)NC(CO)c1ccc(-c2nn(C3CCCC3)c(N)c2C(N)=O)cc1C (stereo not drawn) [Example 185, 5-amino-1-cyclopentyl-3-[4-[2-hydroxy-1-[(2-methoxybenzoyl)amino]ethyl]-3-methyl-phenyl]pyrazole-4-carboxamide] | 1000 to 10000 nM | 1000 to 10000 nM |  | 1000 to 10000 nM | 
18 | COc1ccccc1C(=O)NCc1ccc(-c2nn(C[C@H]3CCCNC3)c(N)c2C(N)=O)cc1 [Example 42, 5-amino-3-[4-[[(2-methoxybenzoyl)amino]methyl]phenyl]-1-[[(3S)-3-piperidyl]methyl]pyrazole-4-carboxamide] | > 10000 nM | > 10000 nM |  |  | 
19 | COc1ccccc1C(=O)NCc1ccc(-c2nn(-c3nc(C)cs3)c(N)c2C(N)=O)cc1 [Example 67, 5-amino-3-[4-[[(2-methoxybenzoyl)amino]methyl]phenyl]-1-(4-methylthiazol-2-yl)pyrazole-4-carboxamide] |  | 100 to 1000 nM |  |  | 
20 | COc1ccccc1C(=O)NCc1ccc(-c2nn([C@@H]3CCC[C@H]3O)c(N)c2C(N)=O)cc1 (relative stereo) [Example 2, 5-Amino-1-[(1R*,2R*)-2-hydroxycyclopentyl]-3-[4-[[(2-methoxybenzoyl)amino]methyl]phenyl]pyrazole-4-carboxamide] |  | < 10 nM | 100 to 1000 nM | < 10 nM | 
21 | CNC(=O)c1c(-c2ccc(CNC(=O)c3ccccc3OC)cc2)nn(C2CCCC2)c1N [Example 69, 5-amino-1-cyclopentyl-3-[4-[[(2-methoxybenzoyl)amino]methyl]phenyl]-N-methyl-pyrazole-4-carboxamide] |  | > 10000 nM |  |  | 

Source: patent US11826351B2, “Compounds useful as kinase inhibitors” (Loxo Oncology, Inc., priority 2015, dated 2023)
